Legend:
Conditions in all cases: CFU after 24 h, 0.07% (w/v) polysaccharide, 30 ppm copper, Table 3(b)
C. albicans = tested on: C. albicans
A. baumannii = tested on: A. baumannii
P. aeruginosa = tested on: P. aeruginosa
E. coli = tested on: E. coli
S. aureus = tested on: S. aureus
B. subtilis = tested on: B. subtilis

Compound | Cell Viability [%] (C. albicans) | Cell Viability [%] (A. baumannii) | Cell Viability [%] (P. aeruginosa) | Cell Viability [%] (E. coli) | Cell Viability [%] (S. aureus) | Cell Viability [%] (B. subtilis)
[Cl][Cu][Cl] [CuCl2] | 71.0 ± 1.0 | 81.5 ± 7.4 | 82.6 ± 6.8 | 81.3 ± 5.6 | 81.6 ± 4.5 | 82.0 ± 1.0
[O]=[Cu] [CuO] | 84.7 ± 4.0 | 87.1 ± 2.3 | 79.4 ± 8.9 | 78.1 ± 6.5 | 71.2 ± 8.9 | 72.7 ± 4.0
[Cl][Cu] [CuCl, cuprous chloride] | 90.3 ± 0.6 | 37.4 ± 3.5 | 38.9 ± 4.5 |  |  | 52.6 ± 5.4
